Test results reported in US11938133B2, “Stable pharmaceutical composition for oral administration” (ASTELLAS PHARMA INC., priority 2015, dated 2024).

Columns and labels:
[1] = Calculation of proportion of crystals by near-infrared spectroscopy; format: physicochemical; conditions: Compound A hemifumarate after water was added to the crystals and dried (material used for Examples 4 to 15)
Description: As a method of calculating the proportion of crystals of Compound A hemifumarate in Compound A hemifumarate, for example, the spectrum is measured, as a near-infrared spectroscopy measurement, by a Fourier transform near-infrared spectrometer (MPA, Bruker Optics K. K.)(measurement range; 12500 cm^−1 to 5800 cm^−1, resolution; 8 cm^−1, number of scans; 32), and the obtained spectrum is secondary-differentiated (Savitzky-Golay convolution method), and can be analyzed using a near-infrared spectrum analysis software (for example, OPUS, Bruker Optics K. K.). The pharmaceutical composition for oral administration is powdered using a mortar and pestle to measure the spectrum. Before the spectrum measurement of the pharmaceutical composition for oral administration, spectra of preparations, in which crystals of Compound A hemifumarate are mixed in various proportions, are regression-analyzed by a partial least square method to create a calibration curve, and each spectrum obtained from the pharmaceutical composition for oral administration is interpolated into the calibration curve to calculate the proportion of crystals of Compound A hemifumarate.
With respect to the tablets (film coated tablets) prepared in Comparative Example 1, Example 1, Example 2, and Example 3, the proportion of crystals of Compound A hemifumarate after production was calculated by near-infrared spectroscopy. […]

[2] = Stability of drug substance alone in heat and humidity (severity test or the like); format: physicochemical; conditions: certain storage conditions such as a severity test
[3] = tested on: EML4 (Echinoderm microtubule associated protein like-4)-ALK (Anaplastic lymphoma kinase) fusion protein; conditions: reported in Patent literature 1 (WO 2010/128659); cited from earlier work

| Compound | Proportion of crystals [1] | Stability of drug substance alone (in words) [2] | Inhibitory activity of a kinase activity of EML4-ALK fusion protein [3] |
| --- | --- | --- | --- |
| CCc1nc(C(N)=O)c(Nc2ccc(N3CCC(N4CCN(C)CC4)CC3)c(OC)c2)nc1NC1CCOCC1 [Compound A hemifumarate] | 62% | stable in heat and humidity alone |  |
| CCc1nc(C(N)=O)c(Nc2ccc(N3CCC(N4CCN(C)CC4)CC3)c(OC)c2)nc1NC1CCOCC1 [Compound A, 6-Ethyl-3-({3-methoxy-4-[4-(4-methylpiperazin-1-yl)piperidin-1-yl]phenyl}amino)-5-(tetrahydro-2H-pyran-4-ylamino)pyrazine-2-carboxamide] |  |  | inhibitory activity |
